Some test systems named below: M14 melanoma; SNB-75 CNS; SK-OV-3 ovarian; OVCAR-4 ovarian; RXF 393 renal; HOP-62 NSCLC; OVCAR-8 ovarian; 786-0 renal; HL-60(TB) leukemia; UACC-257 melanoma.
Holding throughout (experiment): growth of human tumour cells (NCI), 48 h

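Results reflect a 48-hour exposure of cells in 96-well plates to compound at five concentrations. The concentration for 50% growth inhibition is given as GI50. TGI: concentration producing complete growth inhibition.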

For `NS(=O)(=O)c1ccc(N=Nc2c(O)[nH]c3cccc(CCc4ccncc4)c23)cc1`, the GI50 in the experiment on M14 melanoma, in the experiment with SNB-75 CNS, with SK-OV-3 ovarian, in the experiment on OVCAR-4 ovarian, with RXF 393 renal and in the experiment on HOP-62 NSCLC was greater than 25 µM in each case. For the same compound, the GI50 with OVCAR-8 ovarian, in the experiment on 786-0 renal, in the experiment on HL-60(TB) leukemia and with UACC-257 melanoma was greater than 25 µM in each case. Further, the TGI in the experiment with M14 melanoma, with SNB-75 CNS, in the experiment on SK-OV-3 ovarian, in the experiment on OVCAR-4 ovarian, with RXF 393 renal and in the experiment on HOP-62 NSCLC was greater than 25 µM in each case. For the same compound, the TGI with OVCAR-8 ovarian, in the experiment with 786-0 renal, with HL-60(TB) leukemia and with UACC-257 melanoma was greater than 25 µM throughout.

Take `Cc1cc(S(=O)(=O)Nc2n[nH]c(-c3ccc(Cl)cc3)c2C#N)c(S)cc1Cl`: the GI50 in the experiment on M14 melanoma, in the experiment on SNB-75 CNS, in the experiment on SK-OV-3 ovarian, with OVCAR-4 ovarian, in the experiment with RXF 393 renal and with HOP-62 NSCLC was greater than 100 µM each time. Further, the GI50 in the experiment with OVCAR-8 ovarian, in the experiment on 786-0 renal, with HL-60(TB) leukemia and in the experiment with UACC-257 melanoma was greater than 100 µM each time. Moreover, the TGI in the experiment with M14 melanoma, in the experiment with SNB-75 CNS, with SK-OV-3 ovarian, in the experiment with OVCAR-4 ovarian, in the experiment on RXF 393 renal and in the experiment on HOP-62 NSCLC was greater than 100 µM throughout. Further, the TGI in the experiment on OVCAR-8 ovarian, in the experiment on 786-0 renal, in the experiment with HL-60(TB) leukemia and in the experiment with UACC-257 melanoma was greater than 100 µM in each case.

Turning to `c1ccc2c(CNCCCN3CCN(CCCNCc4cccc5ccccc45)CC3)cccc2c1`, the TGI in the experiment with M14 melanoma turned out to be 2.42 µM; in the experiment on SNB-75 CNS, 3.15 µM; in the experiment on SK-OV-3 ovarian it was 5.22 µM; with OVCAR-4 ovarian it was 5 µM; in the experiment on RXF 393 renal it was 2.4 µM; in the experiment on HOP-62 NSCLC, 34.4 µM. For the same compound, the TGI came out at 4.03 µM with OVCAR-8 ovarian, 4.18 µM in the experiment on 786-0 renal, 3.45 µM with HL-60(TB) leukemia and 3.34 µM in the experiment with UACC-257 melanoma.

As to `COc1c(O)cc2c(c1CC=C(C)C)OC(=O)c1c(cc(O)c(CC=C(C)C)c1O)O2`, the GI50 was 4.22 µM in the experiment on M14 melanoma; 3.09 µM in the experiment with SNB-75 CNS; 4.44 µM with SK-OV-3 ovarian; 4.04 µM in the experiment with OVCAR-4 ovarian; 4.02 µM in the experiment on RXF 393 renal; 4.19 µM in the experiment with HOP-62 NSCLC. The GI50 in the experiment with OVCAR-8 ovarian was 4.47 µM; with 786-0 renal, 4.59 µM; with HL-60(TB) leukemia, 5.76 µM; in the experiment with UACC-257 melanoma, 4.06 µM. For the same compound, the TGI in the experiment with M14 melanoma was determined as 8.5 µM; in the experiment with SNB-75 CNS, 6.45 µM; with SK-OV-3 ovarian, 8.01 µM; with OVCAR-4 ovarian, 7.61 µM; with RXF 393 renal it was 7.75 µM; in the experiment on HOP-62 NSCLC, 7.72 µM. For the same compound, the TGI was determined as 8.71 µM in the experiment on OVCAR-8 ovarian, 8.47 µM with 786-0 renal, 15.4 µM in the experiment on HL-60(TB) leukemia and 7.67 µM with UACC-257 melanoma.

In the case of `CCCCN(CCCC)C(=O)C(=O)C(C(=O)C(=O)OC)c1nc2ccccc2o1` (stereo not given), the TGI was greater than 100 µM in the experiment with M14 melanoma; greater than 100 µM in the experiment on SNB-75 CNS; greater than 100 µM in the experiment on SK-OV-3 ovarian; greater than 100 µM in the experiment on OVCAR-4 ovarian; 99 µM with RXF 393 renal; greater than 100 µM in the experiment on HOP-62 NSCLC. Further, the TGI in the experiment with OVCAR-8 ovarian, in the experiment on 786-0 renal, with HL-60(TB) leukemia and in the experiment on UACC-257 melanoma was greater than 100 µM throughout.

On to `N#CCC(=O)N/N=C(/C(=O)Nc1ccccc1)C1C(=O)N(c2ccccc2)N=C1N` (stereo not given), for which the TGI with M14 melanoma, in the experiment on SNB-75 CNS, in the experiment on SK-OV-3 ovarian, with OVCAR-4 ovarian, in the experiment with RXF 393 renal and with HOP-62 NSCLC was greater than 100 µM throughout. The TGI in the experiment on OVCAR-8 ovarian, with 786-0 renal, in the experiment on HL-60(TB) leukemia and in the experiment with UACC-257 melanoma was greater than 100 µM throughout.

As for `O=C(CSc1nc2ccc([N+](=O)[O-])cc2[nH]1)Nc1ccc([N+](=O)[O-])cc1`, the GI50 with M14 melanoma was 2.73 µM; in the experiment with SNB-75 CNS, 1.84 µM; in the experiment with SK-OV-3 ovarian it was 1.89 µM; in the experiment with OVCAR-4 ovarian it was 1.92 µM; in the experiment on RXF 393 renal, 1.95 µM; with HOP-62 NSCLC, 2.32 µM. Further, the GI50 was 2.79 µM in the experiment with OVCAR-8 ovarian, 3.02 µM in the experiment on 786-0 renal, 2.81 µM in the experiment with HL-60(TB) leukemia and 1.75 µM in the experiment on UACC-257 melanoma. The TGI in the experiment on M14 melanoma was 19.9 µM; in the experiment with SNB-75 CNS it was 6.95 µM; in the experiment on SK-OV-3 ovarian, 5.59 µM; in the experiment on OVCAR-4 ovarian it was 29.3 µM; in the experiment with RXF 393 renal it was 7.24 µM; in the experiment on HOP-62 NSCLC it was 12.1 µM. The TGI in the experiment with OVCAR-8 ovarian is greater than 35.7 µM; in the experiment on 786-0 renal, 13.5 µM; with HL-60(TB) leukemia it was greater than 25.7 µM; in the experiment with UACC-257 melanoma, 6.71 µM.

On to `COc1cc2c3c(n(CCCNC(C)(C)CO)c(=O)c2cc1OC)-c1cc2c(cc1C3=O)OCO2`, for which the GI50 with M14 melanoma is 0.754 µM; in the experiment on SNB-75 CNS, 2.58 µM; with SK-OV-3 ovarian, 17.9 µM; with OVCAR-4 ovarian, 11.3 µM; with RXF 393 renal it was 16.2 µM; in the experiment on HOP-62 NSCLC it was 0.131 µM. Besides, the GI50 in the experiment on OVCAR-8 ovarian is 1.18 µM; in the experiment with 786-0 renal it was 0.0829 µM; in the experiment on HL-60(TB) leukemia it was 0.539 µM; in the experiment with UACC-257 melanoma it was 19.1 µM. The TGI in the experiment on M14 melanoma was 19 µM; in the experiment with SNB-75 CNS, 44 µM; with SK-OV-3 ovarian, greater than 68.2 µM; in the experiment on OVCAR-4 ovarian it was 42.1 µM; with RXF 393 renal it was greater than 68 µM; with HOP-62 NSCLC it was 5.14 µM. Further, the TGI in the experiment on OVCAR-8 ovarian turned out to be 22.4 µM; in the experiment on 786-0 renal it was 0.66 µM; in the experiment with HL-60(TB) leukemia, 4.16 µM; in the experiment on UACC-257 melanoma it was 49.9 µM.

Regarding `CC1=CC=C2C(C)(C)CC[C@@H]3OC(=O)[C@H]1[C@]23C`, the TGI in the experiment on M14 melanoma, with SNB-75 CNS, in the experiment on SK-OV-3 ovarian, in the experiment on OVCAR-4 ovarian, with RXF 393 renal and with HOP-62 NSCLC was greater than 100 µM in each case. The TGI with OVCAR-8 ovarian, with 786-0 renal, with HL-60(TB) leukemia and in the experiment on UACC-257 melanoma was greater than 100 µM throughout.

As for `CC[C@H]1[C@@H](C)C=C[C@@H](C)N1S(=O)(=O)c1ccc(C)cc1`, the TGI in the experiment with M14 melanoma, in the experiment with SNB-75 CNS, in the experiment with SK-OV-3 ovarian, in the experiment on OVCAR-4 ovarian, in the experiment on RXF 393 renal and with HOP-62 NSCLC was greater than 100 µM each time. Moreover, the TGI in the experiment on OVCAR-8 ovarian was greater than 100 µM; in the experiment with 786-0 renal, greater than 100 µM; in the experiment with HL-60(TB) leukemia it was 52 µM; in the experiment with UACC-257 melanoma it was greater than 100 µM.

On to `O=C(Cc1c(C(=O)Nc2ccccc2)sc(C(=O)Nc2ccccc2)c1CC(=O)Nc1ccccc1)Nc1ccccc1`, for which the TGI in the experiment on M14 melanoma, in the experiment with SNB-75 CNS, in the experiment on SK-OV-3 ovarian, with OVCAR-4 ovarian, in the experiment with RXF 393 renal and with HOP-62 NSCLC was greater than 100 µM throughout. Also, the TGI in the experiment on OVCAR-8 ovarian, in the experiment on 786-0 renal, in the experiment with HL-60(TB) leukemia and in the experiment with UACC-257 melanoma was greater than 100 µM throughout.

On to `COC(=O)C(=O)C(C(=O)C(=O)Nc1ccccc1C(N)=O)c1nc2ccc([N+](=O)[O-])cc2[nH]c1=O` (stereo not given), for which the TGI in the experiment on M14 melanoma, with SNB-75 CNS, with SK-OV-3 ovarian, in the experiment with OVCAR-4 ovarian, with RXF 393 renal and in the experiment with HOP-62 NSCLC was greater than 100 µM each time. In addition, the TGI in the experiment with OVCAR-8 ovarian, in the experiment with 786-0 renal, with HL-60(TB) leukemia and in the experiment on UACC-257 melanoma was greater than 100 µM throughout.

On to `Cc1ccc(S(=O)OC2c3ccccc3Cc3ccccc32)cc1` (stereo not given), for which the TGI in the experiment on M14 melanoma came out at 33.8 µM; in the experiment with SNB-75 CNS, 34.6 µM; in the experiment on SK-OV-3 ovarian, 41.9 µM; with OVCAR-4 ovarian, 33.2 µM; with RXF 393 renal, 26.8 µM; in the experiment on HOP-62 NSCLC, 34.3 µM. In addition, the TGI in the experiment on OVCAR-8 ovarian was 28.9 µM; in the experiment with 786-0 renal, 48.1 µM; in the experiment with HL-60(TB) leukemia, 44 µM; in the experiment with UACC-257 melanoma it was 34.9 µM.

For `Cc1cc2c(cc1C)[n+](=O)c(C(=O)CC(=O)C(=O)Nc1ccccc1C)c(C)n2[O-]`, the TGI in the experiment on M14 melanoma, in the experiment on SNB-75 CNS, in the experiment on SK-OV-3 ovarian, in the experiment on OVCAR-4 ovarian, with RXF 393 renal and in the experiment on HOP-62 NSCLC was greater than 100 µM in each case. Besides, the TGI in the experiment on OVCAR-8 ovarian, in the experiment on 786-0 renal, with HL-60(TB) leukemia and with UACC-257 melanoma was greater than 100 µM throughout.

For the compound `N#C/C(=C\c1ccc([N+](=O)[O-])cc1)n1nnc2cc(F)c(F)cc21`, the GI50 with M14 melanoma was 1.83 µM; in the experiment with SNB-75 CNS, 1.52 µM; in the experiment on SK-OV-3 ovarian, 2.85 µM; in the experiment with OVCAR-4 ovarian it was 1.46 µM; in the experiment with RXF 393 renal, 1.04 µM; in the experiment on HOP-62 NSCLC, 1.78 µM. In addition, the GI50 with OVCAR-8 ovarian is 2.14 µM; in the experiment on 786-0 renal it was 1.86 µM; with HL-60(TB) leukemia it was 2.36 µM; in the experiment on UACC-257 melanoma, 2.17 µM. The TGI was 3.74 µM in the experiment with M14 melanoma; 3.02 µM with SNB-75 CNS; 11.4 µM in the experiment on SK-OV-3 ovarian; 2.86 µM in the experiment with OVCAR-4 ovarian; 2.39 µM in the experiment with RXF 393 renal; 4.11 µM in the experiment with HOP-62 NSCLC. The TGI in the experiment on OVCAR-8 ovarian came to 6.17 µM; with 786-0 renal it was 3.37 µM; in the experiment with HL-60(TB) leukemia, 5.78 µM; in the experiment on UACC-257 melanoma it was 5.65 µM.

Consider `S=c1sc2sc(=S)sc2s1`, for which the TGI with M14 melanoma was 59 µM; with SNB-75 CNS, 82.6 µM; in the experiment with SK-OV-3 ovarian it was 33.9 µM; in the experiment with OVCAR-4 ovarian it was greater than 100 µM; with RXF 393 renal, greater than 100 µM; with HOP-62 NSCLC it was greater than 100 µM. Also, the TGI in the experiment with OVCAR-8 ovarian was greater than 100 µM; in the experiment with 786-0 renal, greater than 100 µM; in the experiment with HL-60(TB) leukemia, 23.3 µM; with UACC-257 melanoma, greater than 100 µM.

These data come from PubChem BioAssay (NCI).
